The values below come from patent US20250034186A1, “ANTIVIRAL COMPOUNDS” (priority 2020, published 2025).

A short description of data set [1]: Stability assay in human hepatic S9 fractions. Format: in vitro ADME. The conditions noted are these: 37° C., NADPH and UDPGA, read-out: Hum HepS9 t1/2. The protocol: (§1) For S9 stability, the compounds were incubated at 2 μM in cynomolgus monkey or human hepatic S9 fractions for up to 90 min at 37° C. in the presence of NADPH and UDPGA (Phase I and Phase II cofactor, Sigma-Aldrich). At desired time points following compound addition, samples were quenched with 9 volumes of an aqueous solution containing internal standard, 50% acetonitrile and 25% methanol. Sample plates were centrifuged at 3000 g for 30 min, and 10 μL of the resulting solution was analyzed by LC-MS/MS. Data (analyte to internal standard peak area ratio) were plotted on a semi log scale and fitted using an exponential fit. The half-life (T1/2) was determined assuming first order kinetics.

Data set [2] deals with HRV16. The data set can be described thus: HRV16 HeLa EC50. Format: cell-based, human rhinovirus. As to conditions: Human rhinovirus sp., HRV16; H1-HeLa cells, 96 h, 33° C. The protocol:
H1-HeLa cells, cultured in complete DMEM medium containing 10% heat-inactivated FBS and 1% Penicillin/Streptomycin, were seeded in 96 well plates at 3000 cells/well one day prior to compound dosing and infection. The antiviral activity of each compound was measured in triplicate. Compounds were added directly to the cell cultures in serial 3-fold dilutions using the HP300 digital dispenser (Hewlett Packard, Palo Alto, CA) immediately prior to infection. The plates were transferred to BSL-2 containment and the appropriate dilution of virus stock, previously determined by titration and prepared in cell culture media, was added to test plates containing cells and serially diluted compounds. Each plate included 6 wells of infected untreated cells and 6 wells of uninfected cells that served as 0% and 100% virus inhibition control, respectively. Following the infection, test plates were incubated for 96 h in a tissue culture incubator set to 33° C./5% CO2. Following incubation, the H1-HeLa cells were removed from incubation and allowed to equilibrate to 25° C. Cell viability was determined by removing 100 μL of culture medium and adding 100 μL of Cell-Titer Glo viability reagent. The mixtures were incubated on a shaker for 10 minutes at 25° C., and the luminescence signal was quantified on an Envision luminescence plate reader.

The nature of data set [3]: in vitro. The data set is classed as in vitro ADME. The conditions noted are these: plasma, 37° C., up to 4 h. The protocol:
For plasma stability, the compounds were incubated at 2 μM in cynomolgus monkey or human plasma for up to 4 h at 37° C. At desired time points, an aliquot from the incubation was quenched by addition of 9 volumes of 100% acetonitrile supplemented with internal standard. Following the last collection, samples were centrifuged at 3000 g for 30 min and supernatants were transferred to a new plate containing an equal volume of water for analysis by liquid chromatography coupled to triple quadrupole mass spectrometry (LC-MS/MS). Data (analyte to internal standard peak area ratio) were plotted on a semi log scale and fitted using an exponential fit. The half-life (T1/2) was determined assuming first order kinetics.

The test system of data set [4] is RSV strain A2. The data set can be described thus: RSV HEp-2 EC50, infectious cytopathic cell protection assay. Format: cell-based. As to conditions: human respiratory syncytial virus, 96 h; RSV A2 in HEp-2 cells, 4 days, Cell TiterGlo. The protocol: Antiviral activity against RSV is determined using an infectious cytopathic cell protection assay in HEp-2 cells. In this assay, compounds inhibiting viral infection and/or replication produce a cytoprotective effect against the virus-induced cell killing that can be quantified using a cell viability reagent. The techniques used here are novel adaptations of methods described in published literature (Chapman et al., Antimicrob Agents Chemother. 2007, 51(9):3346-53.).
HEp-2 cells are obtained from ATCC (Manassas, VI) and maintained in MEM media supplemented with 10% fetal bovine serum and penicillin/streptomycin. Cells are passaged twice a week and kept at subconfluent stage. Commercial stock of RSV strain A2 (Advanced Biotechnologies, Columbia, MD) is titered before compound testing to determine the appropriate dilution of the virus stock that generates desirable cytopathic effect in HEp-2 cells.
For antiviral tests, HEp-2 cells are grown in large cell culture flasks to near confluency but not fully so. The compounds to be tested are prediluted in DMSO in 384-well compound dilution plates, either in an 8 or 40 sample per plate standardized dose response format. 3-fold serial dilution increments of each test compound are prepared in the plates and test samples are transferred via acoustic transfer apparatus (Echo, Labcyte) at 100 nL per well into cell culture assay 384-well plates. Each compound dilution is transferred in single or quadruplicate samples into dry assay plates, which are stored until assay is ready to go. The positive and negative controls are laid out in opposite on ends of the plate in vertical blocks (1 column).
Subsequently, an infectious mixture is prepared using an appropriate dilution of virus stock previously determined by titration with cells at a density of 50,000/mL and 20 μL/well is added to test plates w/compounds via automation (uFlow, Biotek). Each plate includes negative and positive controls (16 replicates each) to create 0% and 100% virus inhibition standards, respectively. Following the infection with RSV, testing plates are incubated for 4 days in a 37° C. cell culture incubator. After the incubation, a cell viability reagent, Cell TiterGlo (Promega, Madison, WI) is added to the assay plates, which are incubated briefly, and a luminescent readout is measured (Envision, Perkin Elmer) in all the assay plates. The RSV-induced cytopathic effect, percentage inhibition, is determined from the levels of remaining cell viability. […] Various potent anti-RSV tool compounds are used as positive controls for antiviral activity.

The nature of data set [5]: Stability assay in cynomolgus monkey hepatic S9 fractions. The data set is classed as in vitro ADME. The conditions noted are these: 37° C., NADPH and UDPGA, read-out: Cyno HepS9 t1/2. The protocol:
as §1

Data set [6] concerns RSV A2. The data set can be described thus: RSV NHBE EC50, RSV A2 antiviral assay. The data set is classed as cell-based. As to conditions: human respiratory syncytial virus, 96 h; RSV A2 in NHBE cells, 4 days. The protocol:
Normal human bronchial epithelial (NHBE) cells were purchased from Lonza (Walkersville, MD, Cat #CC-2540) and cultured in Bronchial Epithelial Growth Media (BEGM) (Lonza, Walkersville, MD, Cat #CC-3170). The cells were passaged 1-2 times per week to maintain <80% confluency. The NHBE cells were discarded after 6 passages in culture.
To conduct the RSV A2 antiviral assay, NHBE cells were plated in 96-well plates at a density of 7,500 cells per well in BEGM and allowed to attach overnight at 37° C. Following attachment, 100 μL of cell culture media was removed and 3-fold serially diluted compound was added using a Hewlett-Packard D300 Digital Dispenser. The final concentration of DMSO was normalized to 0.05%. Following compound addition, the NHBE cells were infected by the addition of 100 μL of RSV A2 at a titer of 1×10^4.5 tissue culture infectious doses/mL in BEGM and then incubated at 37° C. for 4 days. The NHBE cells were then allowed to equilibrate to 25° C. and cell viability was determined by removing 100 μL of culture medium and adding 100 μL of Cell-Titer Glo viability reagent. The mixtures were incubated for 10 minutes at 25° C., and the luminescence signal was quantified on an Envision luminescence plate reader.

A short description of data set [7]: HEp-2 cytotoxicity assay. The data set is classed as cell-based. As to conditions: human, HEp-2 cells (uninfected), 4-5 days. The protocol: (§2) Cytotoxicity of the compound of Formula I and compounds 1, 2, and 6 was determined in uninfected cells using the cell viability reagent in a similar fashion as described before for other cell types (Cihlar et al., Antimicrob Agents Chemother. 2008, 52(2):655-65.). HEp-2 (1.5×10^3 cells/well) and MT-4 (2×10^3 cells/well) cells were plated in 384-well plates and incubated with the appropriate medium containing 3-fold serially diluted compound ranging from 15 nM to 100,000 nM. Cells were cultured for 4-5 days at 37° C. Following the incubation, the cells were allowed to equilibrate to 25° C., and cell viability was determined by adding Cell-Titer Glo viability reagent. The mixture was incubated for 10 min, and the luminescence signal was quantified using an Envision plate reader. Untreated cell and cells treated at 2 μM puromycin (Sigma, St. Louis, MO) serve as 100% and 0% cell viability control, respectively.

Data set [8] can be described thus: MT-4 cytotoxicity assay. Format: cell-based. The conditions noted are these: human, MT-4 cells (uninfected), 4-5 days, read-out: CC50 MT4. The protocol:
as §2

The mark [9] stands for this setting: human, read-out: Hum Plasma t1/2.

Where only a bound is given, the exact number is not on record here.

For `CCC(CC)COC(=O)[C@H](C)N[P@@](=O)(OC[C@@]1(C#N)O[C@@H](c2ccc3c(N)ncnn23)[C@H](O)[C@@H]1O)Oc1ccccc1` (single isomer, unassigned) [Compound 7], the half-life at 2 μM is 6 min in data set [1]; 2.97 h in data set [3] (cynomolgus monkey, read-out: Cyno Plasma t1/2); 3.88 h in data set [3] (setting [9]); 2 min in data set [5]. The EC50 was 183 nM in data set [2], 124 nM in data set [4] and 91 nM in data set [6].
With `CCOC(=O)[C@H](C)N[P@](=O)(OC[C@@]1(C#N)O[C@@H](c2ccc3c(N)ncnn23)[C@H](O)[C@@H]1O)Oc1ccccc1` [Compound 8, ethyl ((S)-(((2R,3S,4R,5S)-5-(4-aminopyrrolo[2,1-f][1,2,4]triazin-7-yl)-2-cyano-3,4-dihydroxytetrahydrofuran-2-yl)methoxy)(phenoxy)phosphoryl)-L-alaninate], the half-life at 2 μM came out at 2 min in data set [1] and 6.02 h in data set [3] (setting [9]). Also, the CC50 was > 100000 nM in data set [7] and 28300 nM in data set [8]. The EC50 amounted to 678 nM in data set [2], 91 nM in data set [4] and 932 nM in data set [6].
